According to PubChem BioAssay (NCI):
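Compound exposure: 48 hours, 5 concentrations, 96-well plates. GI50 = concentration required for 50% inhibition of growth. TGI: concentration producing complete growth inhibition.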

Experiments:
Assay in all cases: DTP human tumour cell line panel, 48 h
ACHN renal = tested on: ACHN renal
BT-549 breast = tested on: BT-549 breast
CCRF-CEM leukemia = tested on: CCRF-CEM leukemia
COLO 205 colon = tested on: COLO 205 colon
DU-145 prostate = tested on: DU-145 prostate
HCC-2998 colon = tested on: HCC-2998 colon
HCT-116 colon = tested on: HCT-116 colon
HCT-15 colon = tested on: HCT-15 colon
HL-60(TB) leukemia = tested on: HL-60(TB) leukemia
HT29 colon = tested on: HT29 colon
IGROV1 ovarian = tested on: IGROV1 ovarian
K-562 leukemia = tested on: K-562 leukemia
KM12 colon = tested on: KM12 colon
M14 melanoma = tested on: M14 melanoma
MALME-3M melanoma = tested on: MALME-3M melanoma
MCF7 breast = tested on: MCF7 breast
MDA-MB-231 breast = tested on: MDA-MB-231 breast
MDA-MB-435 = tested on: MDA-MB-435
MDA-MB-468 breast = tested on: MDA-MB-468 breast
MOLT-4 leukemia = tested on: MOLT-4 leukemia
OVCAR-4 ovarian = tested on: OVCAR-4 ovarian
OVCAR-5 ovarian = tested on: OVCAR-5 ovarian
OVCAR-8 ovarian = tested on: OVCAR-8 ovarian
SF-539 CNS = tested on: SF-539 CNS
SK-MEL-2 melanoma = tested on: SK-MEL-2 melanoma
SK-MEL-28 melanoma = tested on: SK-MEL-28 melanoma
SK-MEL-5 melanoma = tested on: SK-MEL-5 melanoma
SN12C renal = tested on: SN12C renal
SNB-19 CNS = tested on: SNB-19 CNS
SR leukemia = tested on: SR leukemia
T-47D breast = tested on: T-47D breast
TK-10 renal = tested on: TK-10 renal
UACC-257 melanoma = tested on: UACC-257 melanoma
UACC-62 melanoma = tested on: UACC-62 melanoma
UO-31 renal = tested on: UO-31 renal

O=C(NCCCCCCCCCC[P+](c1ccccc1)(c1ccccc1)c1ccccc1)c1ccc(-n2nc(-c3ccccc3O)nc2-c2ccccc2O)cc1
GI50 (ACHN renal): 379 nM | TGI (ACHN renal): 1360 nM | GI50 (BT-549 breast): 104 nM | TGI (BT-549 breast): 673 nM | GI50 (CCRF-CEM leukemia): 39.6 nM | TGI (CCRF-CEM leukemia): > 100000 nM | GI50 (COLO 205 colon): 50.8 nM | TGI (COLO 205 colon): 268 nM | GI50 (DU-145 prostate): 46.4 nM | TGI (DU-145 prostate): 1630 nM | GI50 (HCC-2998 colon): 57.4 nM | TGI (HCC-2998 colon): 1430 nM | GI50 (HCT-116 colon): 37.7 nM | TGI (HCT-116 colon): 1080 nM | GI50 (HCT-15 colon): 566 nM | TGI (HCT-15 colon): 2480 nM | GI50 (HL-60(TB) leukemia): 56.5 nM | TGI (HL-60(TB) leukemia): 461 nM | GI50 (HT29 colon): 40.1 nM | TGI (HT29 colon): 789 nM | GI50 (IGROV1 ovarian): 48.3 nM | TGI (IGROV1 ovarian): 1180 nM | GI50 (K-562 leukemia): 44.9 nM | TGI (K-562 leukemia): 3210 nM | GI50 (KM12 colon): 203 nM | TGI (KM12 colon): 1340 nM | GI50 (M14 melanoma): 82.5 nM | TGI (M14 melanoma): 1320 nM | GI50 (MALME-3M melanoma): 30.7 nM | TGI (MALME-3M melanoma): 190 nM | GI50 (MCF7 breast): 41.7 nM | TGI (MCF7 breast): 953 nM | GI50 (MDA-MB-231 breast): 99.3 nM | TGI (MDA-MB-231 breast): 728 nM | GI50 (MDA-MB-435): 40.9 nM | TGI (MDA-MB-435): 1110 nM | GI50 (MDA-MB-468 breast): 25.5 nM | TGI (MDA-MB-468 breast): 121 nM | GI50 (MOLT-4 leukemia): 58.5 nM | TGI (MOLT-4 leukemia): 1430 nM | GI50 (OVCAR-4 ovarian): 180 nM | TGI (OVCAR-4 ovarian): 2210 nM | GI50 (OVCAR-5 ovarian): 192 nM | TGI (OVCAR-5 ovarian): 926 nM | GI50 (OVCAR-8 ovarian): 74 nM | TGI (OVCAR-8 ovarian): 1220 nM | GI50 (SF-539 CNS): 172 nM | TGI (SF-539 CNS): 716 nM | GI50 (SK-MEL-2 melanoma): 133 nM | TGI (SK-MEL-2 melanoma): 530 nM | GI50 (SK-MEL-28 melanoma): 115 nM | TGI (SK-MEL-28 melanoma): 1590 nM | GI50 (SK-MEL-5 melanoma): 165 nM | TGI (SK-MEL-5 melanoma): 447 nM | GI50 (SN12C renal): 40.7 nM | TGI (SN12C renal): 721 nM | GI50 (SNB-19 CNS): 50.5 nM | TGI (SNB-19 CNS): 1170 nM | GI50 (SR leukemia): < 19.1 nM | TGI (SR leukemia): > 40500 nM | GI50 (T-47D breast): 35.2 nM | TGI (T-47D breast): 522 nM | GI50 (TK-10 renal): 330 nM | TGI (TK-10 renal): 1500 nM | GI50 (UACC-257 melanoma): 90.4 nM | TGI (UACC-257 melanoma): 792 nM | GI50 (UACC-62 melanoma): 84 nM | TGI (UACC-62 melanoma): 568 nM | GI50 (UO-31 renal): 428 nM | TGI (UO-31 renal): 1930 nM
